Here are results for one compound from paper PMC7215935, “GM1 Oligosaccharide Crosses the Human Blood–Brain Barrier In Vitro by a Paracellular Route” (International Journal of Molecular Sciences, 2020).

One series has as its system hBLECs. Briefly: Metabolic integrity of OligoGM1 after hBLEC transport (HPTLC autoradiography). The following applies: basolateral compartment, detection limit 15 dpm. It counts as in vitro ADME, human. The text has this:
Since OligoGM1 is tritium labeled at position 6 of the external galactose, any possible galactosidase activity present on the plasma membrane of hBLECs can result in external galactose removal, leading to loss of radioactivity from the penta-saccharide. Radiolabeled galactose may pass the BBB or may enter into the cells and be recycled for the biosynthesis of new glycans, so that the radioactivity found may correspond to the galactose or to any possible new glycan rather than to the original oligosaccharide.
Thus, to test the integrity of the OligoGM1 molecule after hBLEC crossing, OligoGM1 solution was prepared in RH buffer at a final concentration of 100 μM plus 1 × 10^6 dpm of tritium-labeled OligoGM1. For the apical–basolateral transport experiment, the hBLEC insert’s apical side was filled with 0.5 mL of the drug solution and placed on 1.5 mL RH buffer-filled well of a 12-well plate. After 60 min, the solution of the receiving compartment (about 1.5 mL) was collected and 200 μL were combined with 5 mL of ULTIMA GOLD liquid (PerkinElmer), shaken, and counted for 20 min by a liquid scintillation analyzer (TRI-CARB 2100TR, Packard).
To verify that the counted radioactivity indeed corresponded to [^3H]OligoGM1, 0.5 mL of receiving compartment solution was lyophilized and suspended in 0.5 mL of methanol. […]

A further series deals with TrkA-ERK1/2 pathway. In words: TrkA-ERK1/2 pathway activation in N2a cells (immunoblotting). The class given is cell-based, mouse. To be noted: basolateral solution. How it is done:
Precisely, [^3H]OligoGM1 (1 × 10^6 dpm) diluted into cold OligoGM1 solution (300 µM) was administered for 240 min to hBLECs in the upper compartment so that at a volume of 0.5 mL there was 150 nmol of OligoGM1. […] After the 240 min incubation period, the basolateral solution was screened to find the quantity of crossed OligoGM1 by measuring ^3H-radioactivity and was then administered to N2a cells for 24 h. For control cells, we administered a basolateral solution derived from hBLECs incubated with Transfectagro without OligoGM1. Morphological signals of neurodifferentiation were evaluated by cell observation and TrkA-ERK1/2 pathway activation was verified by immunoblotting (for procedural details see Supplementary Materials and [22, 23]).
Caco-2 cells are not listed as commonly misidentified cell line by the International Cell Line Authentication Committee. However it is reported that culture condition and cell origin can deeply affect Caco-2 morphology and behavior [4-6]. […]
Since mycoplasma could infect of Caco-2 cells, we validated the absence of any contamination by two methods (data not shown). […] Briefly culture supernatants were mixed with MycoAlert reagents according to manufacturer instruction and the luminescence was measured after 10 min using fluorimeter (BioTek, H1, Vermont, Winooski). […]
It is calculated according to the equation (1): […]

In the case of `CC(=O)NC1C(O)CC(OC2C(O)C(OC3C(CO)OC(O)C(O)C3O)OC(CO)C2OC2OC(CO)C(O)C(OC3OC(CO)C(O)C(O)C3O)C2NC(C)=O)(C(=O)O)OC1C(O)C(O)CO` (stereo not drawn) [OligoGM1, β-Gal-(1-3)-β-GalNAc-(1-4)-[α-Neu5Ac-(2-3)]-β-Gal-(1-4)-β-Glc], the “metabolic stability after hBLEC crossing” value in the series on hBLECs is reported as “not metabolized by hBLECs”. Also, the “TrkA-ERK1/2 pathway (pTrkA, pERK1/2)” value with TrkA-ERK1/2 pathway is reported as “activation of the TrkA-ERK1/2 pathway”.
